According to article PMC9671962 (Communications Biology, 2022):
“And” between values parts separate entries of the source, which are not always exact repeats. Equal values may be shown once. Read-outs that look alike come from different tables or passages of the source.

Columns and labels:
[1] = tested on: NB-1643x; experiment: Pre-clinical efficacy study, NB-1643x PDX; type: in vivo; conditions: 36 MBq/kg/fraction x 4 fractions, single mouse
Procedure: (§1) Patient demographics and genetic characteristics are listed in (Supplementary Tables 1, 2)[17]. The maximum tolerated dose (MTD) was determined to be 36 MBq/kg administered by intra-peritoneal injection twice weekly for a total of 4 dose fractions and this fractionated regimen was used in all studies (Supplementary Fig. 1)[18],[19]. […] Nine of 11 PDX models were MYCN amplified (Fig. 1b), which is a hallmark of high-risk neuroblastoma. Tumor response was measured as the maximum percent decrease in tumor volume after treatment and event-free survival (EFS) was measured by the area over the curve method with tumor events pre-defined by tumor growth exceeding 2 cm[3],[18].
The use of 2 mice per arm was based on the previously reported statistical analysis. […] Two additional dose levels of 12, and 24 MBq/kg/fraction were assessed in a subset of models and were administered as stated above. […] Tumors were measured using a digital caliper at the initiation of the study and two times per week during the treatment period. Tumor volumes were calculated as volume = ((diameter^1/2 + diameter^2/2)^3∗0.5236)/1000. Weights were obtained twice weekly and mice were monitored daily for signs of toxicity. […] Tumor response was assessed by best response defined as greatest reduction in tumor volume following the last dose and is presented as percent change in tumor volume. […]

[2] = tested on: COG-N-415x; experiment: Pre-clinical efficacy study, COG-N-415x PDX; type: in vivo; conditions: single mouse
Procedure: as §1
(§2) The use of 2 mice per arm was based on the previously reported statistical analysis. PDX tumors were implanted into the right flank of 5 to 6-weeks old female mice weighing about 20–25 grams. […] Two additional dose levels of 12, and 24 MBq/kg/fraction were assessed in a subset of models and were administered as stated above. In two models treated at the 24 MBq/kg/fraction dose level we re-challenged tumor response at the time of tumor progression with an additional 4 dose fractions at 24 MBq/kg/fraction given twice weekly. Doses were prepared in 500 µL total volume. An equal volume of saline was used for the vehicle group. Tumors were measured using a digital caliper at the initiation of the study and two times per week during the treatment period. Tumor volumes were calculated as volume = ([…]∗0.5236)/1000. Weights were obtained twice weekly and mice were monitored daily for signs of toxicity. […] Tumor response was assessed by best response defined as greatest reduction in tumor volume following the last dose and is presented as percent change in tumor volume. Event-free survival was determined by area over the curve method that calculates the time to tumor event, which was defined as tumors reaching or exceeding a size ≥ 2 cm^3.
(§3) Animal studies were performed in female mice due to the lack of sex-related differences for [^211At]PTT tolerability from initial dose response studies performed in female and male mice. Female mice were chosen due to their underlying behavior towards other study subjects that reduced nonstudy-related causes for decreased wellness. Pre-clinical efficacy studies were performed through “single mouse testing” to more closely recapitulate a clinical trial. […] Number size for treatment groups was determined by model tumor growth reproducibility, which was previously shown to have less than 5% normal variation with at least two animals. Statistical tests for tumor response and event-free survival (EFS) were performed as a grouped analysis that included all tumor models treated at each respective dose level (n = 2 per model per dose level). Statistical differences between treatment groups for tumor response was performed by paired-model T-test that compared reduction in tumor volume for the 36 MBq/kg dose level vs. 24 MBq/kg or 12 MBq/kg. Event free survival was measured by area over the curve method to quantify time to event, which was set as tumor growth exceeding 2 cm[3],[19]. Differences in EFS were tested across all treated models for each respective dose level, and against untreated controls, by paired-model ANOVA analysis. Associations of drug target expression and response were performed by linear regression analysis of EFS and PARP1 mRNA expression. Genetic signatures were visually presented as a function of EFS and no statistical tests were applied. Blood and marrow toxicity studies were performed with n = 5 sample sizes and powered to detect >20% differences between untreated controls and treated animals. Results were tested for significance by one-way ANOVA comparison from untreated controls. Marrow colony formation assays were performed in replicates of 2 for each mouse subject, dependent on marrow isolation, and all replicates are included in final analyses. […]

[3] = type: in vivo, CB57 SCID mice
Procedure: Toxicity studies were done in nontumor bearing CB-17 SCID mice (Taconic Biosciences). […] Each arm had n = 10 mice (5 male, 5 female mice). […] The vehicle group received an equal volume of saline (placebo). Weights were obtained twice weekly and mice were monitored daily for signs of toxicity. […] On target hematological and marrow toxicity which was evaluated by complete blood counts and marrow colony formation assay. An additional study was performed under identical conditions to evaluate additive dose effects. […] Each treatment group was composed of equal numbers of male and female mice to rule out gender-specific effects (n = 4 per treatment group per time point). Mice were followed for signs of acute toxicity for 2 weeks and 4 weeks before euthanasia. An additional group (n = 4) treated at 36 MBq/kg was euthanized after 72 h to assess early signs of toxicity by colony formation assays. This time course was chosen to best capture the nadir of bone marrow suppression. After euthanasia, blood was collected and femurs were dissected and processed for histopathology and bone marrow evaluation.
Su p p lemen t ary Fig u res
Supplementary Fi g u re 1 : Maximum tolerated dose finding studies for [211At]PT T adm inistered as 4
dose fractions given twice weekly in male and female CB57 SCID mice (n=3 per sex per dose level).
(1 picture or pasted object on this page, not shown here)

[4] = tested on: COG-N-426x-FELIX; experiment: Pre-clinical efficacy study, COG-N-426x-FELIX PDX; type: in vivo, mouse; conditions: for Tumor Volume: COG-N-426x-FELIX tumor re-challenge (24 MBq/kg/fraction x 4); for EFS by AOC method / Tumor response (% growth from study initiation at ~ 200 mm3): single mouse
Procedure: as §1, §2, §3

[5] = parameters: method as in PMID 31072830; conditions: cited from earlier work
[6] = cited from earlier work
[7] = 12 MBq/kg/fraction x 4 fractions
[8] = 24 MBq/kg/fraction x 4 fractions
[9] = 36 MBq/kg/fraction x 4 fractions
[10] = COG-N-426x-FELIX, 24 MBq/kg/fraction x 4 fractions
[11] = COG-N-426x-FELIX, 36 MBq/kg/fraction x 4 fractions

Compound: O=C1NCCn2c(-c3ccc([211At])cc3)nc3cccc1c32 [[^211At]PTT, Astatine-211-parthanatine]
- EFS by AOC method [1]: 90.5 days and 76.6 days and 90.5782 days and 76.6342 days
- Tumor response (% growth from study initiation at ~ 200 mm3) [1]: -95.4545% and -100%
- EFS by AOC method [2, 7]: 14.1951 days and 16.6777 days
- Tumor response (% growth from study initiation at ~ 200 mm3) [2, 7]: 74.1936% and -21.7391%
- EFS by AOC method [2, 8]: 27.6 days and 26.9 days and 27.5972 days and 26.9655 days
- Tumor response (% growth from study initiation at ~ 200 mm3) [2, 8]: -80.7692% and -84.6154%
- EFS by AOC method [2, 9]: 38.3761 days and 73.0746 days
- Tumor response (% growth from study initiation at ~ 200 mm3) [2, 9]: -100% and -94.4444%
- maximum tolerated dose (MTD) ([3]; intra-peritoneal, twice weekly, total of 4 dose fractions): 36 MBq/kg
- maximum tolerated dose (MTD) ([3]; x4 fractionated regimen, SCID PDX mice): 36 MBq/kg/fraction
- Tumor Volume ([4]; week 0): 0.25 cm3
- Tumor Volume ([4]; week 0.4): 0.2 cm3
- Tumor Volume ([4]; week 0.9): 0.05 cm3
- Tumor Volume ([4]; week 1.3): 0.08 cm3
- Tumor Volume ([4]; week 1.9): 0.01 cm3
- Tumor Volume ([4]; week 2.3): 0.01 cm3
- Tumor Volume ([4]; week 2.9): 0 cm3
- Tumor Volume ([4]; week 3.4): 0.01 cm3
- Tumor Volume ([4]; week 3.9): 0 cm3
- Tumor Volume ([4]; week 4.4): 0 cm3
- Tumor Volume ([4]; week 4.9): 0 cm3
- Tumor Volume ([4]; week 5.3): 0 cm3
- Tumor Volume ([4]; week 5.9): 0 cm3
- Tumor Volume ([4]; week 6.3): 0.02 cm3
- Tumor Volume ([4]; week 6.9): 0.19 cm3
- Tumor Volume ([4]; week 7.3): 0.13 cm3
- Tumor Volume ([4]; week 7.9): 0.03 cm3
- Tumor Volume ([4]; week 8.3): 0.02 cm3
- Tumor Volume ([4]; week 8.9): 0 cm3
- Tumor Volume ([4]; week 9.3): 0 cm3
- Tumor Volume ([4]; week 9.9): 0 cm3
- Tumor Volume ([4]; week 10.3): 0 cm3
- Tumor Volume ([4]; week 10.9): 0 cm3
- Tumor Volume ([4]; week 11.3): 0 cm3
- Tumor Volume ([4]; week 11.9): 0 cm3
- Tumor Volume ([4]; week 12.3): 0 cm3
- Tumor Volume ([4]; week 12.9): 0 cm3
- Tumor Volume ([4]; week 13.3): 0 cm3
- Tumor Volume ([4]; week 13.9): 0 cm3
- Tumor Volume ([4]; week 14.3): 0 cm3
- Tumor Volume ([4]; week 14.9): 0 cm3
- EFS1 (initial treatment) ([4]; COG-N-426x-FELIX, 24 MBq/kg/fraction x 4, re-challenged mouse n = 1): 49 days and 49.5 days
- EFS by AOC method [4, 10]: 103. 9 Days
- Tumor response (% growth from study initiation at ~ 200 mm3) [4, 10]: -100%
- EFS by AOC method [4, 11]: 104. 1 Days and 104.134 Days and 104.127 Days
- Tumor response (% growth from study initiation at ~ 200 mm3) [4, 11]: -100%
- EFS2 (re-challenge treatment) ([4]; COG-N-426x-FELIX, re-challenge 24 MBq/kg/fraction x 4 at tumor progression, no measurable disease): 59 days
- outcome of single dose ([5]; 1,480 kBq administered as a single dose): lethal
- outcome of fractionated dose ([5]; 1,480 kBq separated into 4 dose fractions given twice weekly): tolerated
- fold more cytotoxic than the non-radioactive PARP inhibitor analog (KX1) [6]: ~1 billion
